These results are taken from patent publication US20240092745A1, “DRUGS AND COMPOSITIONS FOR THE TREATMENT OF OCULAR DISORDERS” (Graybug Vision, Inc., priority 2017, published 2024).

Molecules are shown by their SMILES. “Also recorded” adds a separate entry of the source. Where two headings read alike, the source gives them in different places. Bounds are passed on as bounds.

Data set [1] in a line: In vitro stability of prodrugs (degradation to parent, RP-HPLC). Type of data set: physicochemical. The note with it: for degradation kinetics / hydrolysis to parent, in words: PBS (pH 7) with 10% DMSO, 37° C., RP-HPLC. The protocol: Prodrugs of interest were dissolved in PBS (pH 7) containing 10% DMSO (v/v) at a concentration of 0.1 mg/mL. The samples were incubated at 37° C. or 50° C. to simulate physiological and accelerated degradation conditions, respectively. At various time points, 500 μL of the solution was collected, filtered through a 0.2 μm nylon syringe filter and analyzed by RP-HPLC.
Timolol-Dorzolamide bi-functional prodrugs were dissolved in a mixture of DMSO and PBS and incubated at 37° C. The solution was aliquoted and analyzed by HPLC at pre-determined time points. Timolol-Dorzolamide bi-functional prodrugs were stable for about 3 hours as evidenced by the significant reduction of prodrug peaks in HPLC after 2-3 hours (FIG. 30A and FIG. 30B). Timolol parent drug was detected as the bi-functional prodrug degraded, whereas Dorzolamide appeared in the form of prodrugs, i.e., Dorzolamide linked with 1-3 PLA units.

Data set [2] is described as follows: Determination of drug solubility in aqueous and organic solvent.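 Note: solid drug suspended at 50 mg/mL nominal in each solvent, vortexed and sonicated, then dissolved concentration in filtered supernatant quantified by HPLC against a calibration curve.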 The note with it: thermodynamic from solid, Table 3B. Type of data set: physicochemical.
Protocol: For each test, approximately 5-10 mg was transferred to a 10 mL glass vial. Aqueous or organic solvent was added to each vial to achieve an overall concentration of 50 mg/mL. After vortexing aggressively for 2-3 minutes and sonicating in a bath sonicator for 5 minutes, undissolved drug was spun down at 1200 rpm for 5 minutes to generate a pellet. The supernatant was collected and filtered through a 0.2 μm nylon syringe filter into HPLC vials for drug content analysis. Drug concentration was determined by comparing against a standard calibration curve.
The mark [3] stands for this setting: organic solvent or mixture, DMSO, read-out: Solubility DMSO.
[4] abbreviates: water, drug added to 50 mg/mL, read-out: Solubility Water.

On to `CCOC(=O)CCC(=O)O[C@H](COc1nsnc1N1CCOCC1)CN(C(=O)[C@H](C)OC(=O)[C@H](C)OC(=O)[C@H](C)OC(=O)[C@H](C)OC(C)=O)C(C)(C)C` [Compound 120-1, Timolol-bis-N-acetyl-PLA(n=4)-O-ethyl succinate], for which, in data set [1], the “degradation kinetics / hydrolysis to parent, in words” value (“degradation kinetics / hydrolysis” for short) is given as “degraded to free Timolol incompletely by day 13”. The values for the solubility in data set [2] (setting [3]) and in data set [2] (setting [4]) were over 50 mg/mL and under 1 mg/mL, respectively.
In the case of `CCCCCCCCCCCCCCCCCC(=O)O[C@@H](C)C(=O)O[C@H](COc1nsnc1N1CCOCC1)CN(C(C)=O)C(C)(C)C` [Compound 65-1], in data set [1], the “degradation kinetics / hydrolysis” value was “resistant to hydrolysis and failed to release the parent over the course of the study; also recorded: resistant to hydrolysis”. Moreover, the solubility was over 100 mg/mL in data set [2] (setting [3]) and under 1 mg/mL in data set [2] (setting [4]).
Take `CCOC(=O)CCC(=O)O[C@H](COc1nsnc1N1CCOCC1)CN(C(=O)[C@H](C)OC(=O)[C@H](C)OC(C)=O)C(C)(C)C` [Compound 117-6, Timolol-bis-N-acetyl-PLA(n=2)-O-ethyl-succinate]: the “polymer hydrolyzed to release free Timolol” value in data set [1] (by day 13, 37° C.) is on record as “approximately 50%”. The solubility in data set [2] (setting [3]) was over 50 mg/mL; in data set [2] (setting [4]), under 1 mg/mL.
Take `CC(=O)O[C@@H](C)C(=O)O[C@@H](C)C(=O)O[C@H](COc1nsnc1N1CCOCC1)CN(C(=O)[C@H](C)OC(=O)[C@H](C)OC(C)=O)C(C)(C)C` [Compound 118-1, Timolol-bis-N-acetyl-PLA(n=2)]: the “degradation kinetics / hydrolysis” value in data set [1] is reported as “degraded slightly faster than a Timolol-bis-N-acetyl PLA(n=4) (119-6)”. For the same compound, the solubility is over 50 mg/mL in data set [2] (setting [3]) and under 0.1 mg/mL in data set [2] (setting [4]).
Regarding `CCCCC/C=C\C/C=C\CCCCCCCC(=O)O[C@@H](CNC(C)(C)C)COc1nsnc1N1CCOCC1.O=C(O)/C=C\C(=O)O` [Compound 70-1, Timolol-O-linoleic acid maleate], in data set [1], the “degradation kinetics / hydrolysis” value was “degraded steadily over the 4-day period, releasing parent Timolol in a linear rate; also recorded: steady generation of the parent Timolol”. In addition, the solubility in data set [2] (setting [3]) was over 50 mg/mL; in data set [2] (setting [4]), under 0.01 mg/mL.
